Data reported in ChEMBL document CHEMBL1130998, “Structure-activity requirements for flavone cytotoxicity and binding to tubulin” (J Med Chem, 1998).

Columns and labels:
[1] = tested on: Panel NCI-60 (60 carcinoma cell lines); assay: In vitro cytotoxic potency against NCI-60 human tumor cell line; type: functional
Tubulin (Homo sapiens) = Tubulin (Homo sapiens) (UniProt P68371+Q9H4B7+P0DPH7+P68366+Q13509+Q71U36+P04350+Q3ZCM7+P07437+P68363+Q9BQE3+Q6PEY2+Q13885+Q9BVA1+Q9BUF5); assay: In vitro inhibition of binding of [3H]colchicine to tubulin at 50 mM.; type: protein-complex assay
Tubulin = assay: In vitro inhibitory activity against tubulin polymerization (10 uM); type: protein-complex assay

COc1c(O)cc2oc(-c3ccc(O)cc3)cc(=O)c2c1O [HISPIDULIN]
GI50 [1]: 33 µM

COc1ccc(-c2cc(=O)c3c(OC)cccc3o2)c(OC)c1OC
GI50 [1]: 89 µM

COc1ccc2c(=O)c(O)c(-c3ccc(OC)c(OC)c3)oc2c1
inhibition (Tubulin (Homo sapiens)): 0%
IC50 (Tubulin): > 40 µM
GI50 [1]: 5.5 µM

COc1ccc(-c2cc(=O)c3c(OC)c(OC)c(OC)c(OC)c3o2)cc1 [TANGERETIN]
GI50 [1]: 54 µM

COc1ccccc1-c1cc(=O)c2ccc(OC)c(OC)c2o1
GI50 [1]: 55 µM

COc1cc(O)c2c(=O)c(OC)c(-c3ccc(OC)c(OC)c3)oc2c1 [RETUSIN]
GI50 [1]: 65 µM

COc1cc2oc(-c3ccc(O)cc3)cc(=O)c2c(OC)c1OC
GI50 [1]: > 100 µM

CCOc1cc(O)c2c(=O)c(OC)c(-c3ccc(OC)c(O)c3)oc2c1
GI50 [1]: 12 µM

COc1ccc(-c2oc3cc(O)c(OC)c(O)c3c(=O)c2O)cc1 [BETULETOL]
GI50 [1]: 4.1 µM

COc1ccc(-c2cc(=O)c3c(O)cc(O)cc3o2)cc1OC
GI50 [1]: 48 µM

COc1ccc(-c2oc3cc(O)cc(O)c3c(=O)c2OC)cc1 [ERMANIN]
GI50 [1]: 24 µM

COc1ccc(-c2oc3ccc(C)cc3c(=O)c2O)cc1
GI50 [1]: 76 µM

COc1cc(-c2cc(=O)c3c(O)c(OC)c(OC)c(OC)c3o2)cc(OC)c1OC [GARDENIN]
inhibition (Tubulin (Homo sapiens)): 0%
IC50 (Tubulin): > 40 µM
GI50 [1]: 19 µM

COc1ccc(-c2oc3c(O)c(OC)cc(O)c3c(=O)c2OC)cc1OC
GI50 [1]: > 100 µM

O=c1c(O)c(-c2ccc(O)c(O)c2)oc2cc(O)ccc12 [FISETIN]
GI50 [1]: 18 µM

COc1cc(-c2cc(=O)c3ccccc3o2)cc(OC)c1OC
inhibition (Tubulin (Homo sapiens)): 0%
IC50 (Tubulin): > 40 µM
GI50 [1]: 18 µM

COc1ccc(-c2oc3cc(OC)c(OC)c(OC)c3c(=O)c2O)cc1O
inhibition (Tubulin (Homo sapiens)): 2%
IC50 (Tubulin): > 40 µM
GI50 [1]: 14 µM

COc1cc(OC)c(-c2cc(=O)c3c(O)c(OC)c(OC)c(OC)c3o2)cc1OC
GI50 [1]: 60 µM

COc1c(OC)c(OC)c2c(=O)cc(-c3ccc(OC(C)C)cc3)oc2c1OC
GI50 [1]: 11 µM

COc1ccc(-c2cc(=O)c3c(O)c(OC)c(OC)c(OC)c3o2)cc1OC [5-DEMETHYLNOBILETIN]
inhibition (Tubulin (Homo sapiens)): 5%
IC50 (Tubulin): > 40 µM
GI50 [1]: 17 µM

COc1ccc(-c2oc3cc(O)c(OC)cc3c(=O)c2OC)cc1O
GI50 [1]: 19 µM

COc1ccc(-c2oc3c(OC)c(OC)c(OC)c(OC)c3c(=O)c2OC)cc1OC [3,5,6,7,8,3',4'-HEPTAMETHOXYFLAVONE]
inhibition (Tubulin (Homo sapiens)): 1%
IC50 (Tubulin): > 40 µM
GI50 [1]: > 27 µM

COc1ccc(-c2oc3cc(OC(C)=O)cc(OC(C)=O)c3c(=O)c2OC)cc1
GI50 [1]: 15 µM

COc1ccc(-c2oc3c(OC)c(OC)c(OC)c(O)c3c(=O)c2OC)cc1OC
inhibition (Tubulin (Homo sapiens)): 4%
IC50 (Tubulin): > 40 µM
GI50 [1]: 7.1 µM

COc1cc(-c2oc3c(OC)c(O)c(OC)c(O)c3c(=O)c2OC)ccc1O
inhibition (Tubulin (Homo sapiens)): 6%
IC50 (Tubulin): > 40 µM
GI50 [1]: 27 µM

O=c1c(O)c(-c2c(O)cccc2O)oc2cc(O)cc(O)c12
GI50 [1]: > 100 µM

COc1ccc(-c2cc(=O)c3c(O)c(OC)c(O)c(OC)c3o2)cc1 [NEVADENSIN]
GI50 [1]: 59 µM

COc1cc(O)c2c(=O)c(OC)c(-c3ccc(OC)c(O)c3)oc2c1 [AYANIN]
inhibition (Tubulin (Homo sapiens)): 0%
IC50 (Tubulin): > 40 µM
GI50 [1]: 32 µM

COc1c(OC)c(O)c2c(=O)cc(-c3ccc(O)c(O)c3)oc2c1OC [SIDERITIFLAVONE]
GI50 [1]: 4 µM

COc1ccc(-c2oc3cc(O)c(C)c(C)c3c(=O)c2OC)cc1O
GI50 [1]: 12 µM

COc1ccc(-c2cc(=O)c3c(OC)c(OC)c(OC)c(OC)c3o2)cc1OC [NOBILETIN]
GI50 [1]: 40 µM

COc1ccc(-c2oc3cc(OC)ccc3c(=O)c2O)cc1
GI50 [1]: 4.2 µM

COc1cc(-c2oc3cc(OC)c(OC)c(O)c3c(=O)c2OC)ccc1O [CHRYSOSPLENOL B]
GI50 [1]: > 33 µM

COc1cc(-c2cc(=O)c3c(OC)c(OC)c(OC)c(OC)c3o2)cc(OC)c1OC [HEPATAMETHOXYFLAVONE]
GI50 [1]: 32 µM

COc1cc(-c2oc3c(OC)cc(OC)c(O)c3c(=O)c2OC)cc(OC)c1OC
GI50 [1]: 19 µM

COc1ccc(-c2oc3cc(OC)c(OC)c(O)c3c(=O)c2O)cc1O
inhibition (Tubulin (Homo sapiens)): 9%
IC50 (Tubulin): > 40 µM
GI50 [1]: 4 µM

COc1ccc(-c2cc(=O)c3cc(O)ccc3o2)c(OC)c1OC
GI50 [1]: 30 µM

COc1ccc(-c2oc3cc(O)cc(O)c3c(=O)c2OC)cc1OCc1ccccc1
GI50 [1]: 8.3 µM

COc1ccc(-c2cc(=O)c3c(O)c(O)c(OC)cc3o2)cc1O
GI50 [1]: > 100 µM

COc1cc(OC)c2c(=O)c(OC)c(-c3ccc(OC)c(O)c3)oc2c1
GI50 [1]: > 100 µM

COc1ccc(-c2cc(=O)c3ccc(O)cc3o2)c(OC)c1OC
GI50 [1]: 58 µM

COc1cc(-c2oc3c(OC)c(OC)c(OC)c(O)c3c(=O)c2OC)ccc1O
inhibition (Tubulin (Homo sapiens)): 0%
IC50 (Tubulin): > 40 µM
GI50 [1]: 7.6 µM

COc1ccc(-c2cc(=O)c3c(OC)c(OC)c(OC)c(OC)c3o2)c(OC)c1
GI50 [1]: 26 µM

COc1ccc(-c2cc(=O)c3c(O)c(OC)c(O)cc3o2)cc1O
GI50 [1]: 6 µM

COc1cc(OC)c(-c2oc3ccccc3c(=O)c2O)c(OC)c1
inhibition (Tubulin (Homo sapiens)): 22%
IC50 (Tubulin): 31 µM
GI50 [1]: 5.9 µM

COc1ccc(-c2oc3cc(OC)cc(O)c3c(=O)c2OC)cc1
GI50 [1]: 54 µM

COc1ccc(-c2cc(=O)c3c(O)cc(O)cc3o2)c(OC)c1OC
GI50 [1]: 68 µM

O=c1c(O)c(-c2ccc(O)c(O)c2)oc2cc(O)cc(O)c12 [QUERCETIN]
GI50 [1]: 60 µM

COc1c(C)c(O)c2c(=O)cc(-c3ccccc3)oc2c1C
GI50 [1]: > 100 µM

COc1cc(-c2cc(=O)c3c(O)c(OC)c(OC)c(OC)c3o2)ccc1O
GI50 [1]: 22 µM

COc1ccc(-c2oc3ccccc3c(=O)c2O)cc1OC [3-HYDROXY-3',4'-DIMETHOXYFLAVONE]
GI50 [1]: 32 µM

COc1ccc2c(=O)cc(-c3ccc(OC)c(OC)c3OC)oc2c1
GI50 [1]: 78 µM

COc1cc(-c2oc3c(OC)c(O)c(OC)c(O)c3c(=O)c2OC)cc(OC)c1OC
inhibition (Tubulin (Homo sapiens)): 6%
IC50 (Tubulin): > 40 µM
GI50 [1]: 54 µM

COc1ccc(-c2cc(=O)c3c(O)c(OC)c(O)cc3o2)cc1 [PECTOLINARIGENIN]
inhibition (Tubulin (Homo sapiens)): 11%
IC50 (Tubulin): > 40 µM
GI50 [1]: > 31 µM

COc1cc2oc(-c3ccc(O)cc3)cc(=O)c2c(OC)c1O
GI50 [1]: 62 µM

COc1ccc(-c2oc3cc(OC)c(O)c(OC)c3c(=O)c2OC)cc1O
GI50 [1]: 54 µM

COc1ccc(-c2cc(=O)c3c(OC)c(O)c(OC)cc3o2)cc1
GI50 [1]: 43 µM

COc1cc(OC)cc(-c2cc(=O)c3c(OC)c(OC)c(OC)c(OC)c3o2)c1
GI50 [1]: 30 µM

COc1c(O)c(OC)c2oc(-c3ccc(O)c(O)c3)c(OC)c(=O)c2c1O
GI50 [1]: 20 µM

COc1ccc(-c2oc3cc(OC)c(C)c(C)c3c(=O)c2OC)cc1O
GI50 [1]: 44 µM

COc1ccc(-c2cc(=O)c3c(O)cc(C)cc3o2)cc1OC
GI50 [1]: > 100 µM

COc1ccc(OC)c(-c2cc(=O)c3c(OC)c(OC)c(OC)c(OC)c3o2)c1
GI50 [1]: 24 µM

COc1ccc(-c2cc(=O)c3c(O)c(OC)c(O)cc3o2)cc1OC [EUPATILIN]
inhibition (Tubulin (Homo sapiens)): 6%
IC50 (Tubulin): > 40 µM
GI50 [1]: 15 µM

COc1cc(-c2oc3c(OC)c(O)c(OC)c(O)c3c(=O)c2OC)cc(O)c1OC
GI50 [1]: 32 µM

COc1c(OC)c(OC)c(-c2cc(=O)c3c(OC)c(OC)c(OC)c(OC)c3o2)c(OC)c1OC
GI50 [1]: 36 µM

COc1cc(OC)c2c(=O)c(O)c(-c3ccc(OC)c(OC)c3)oc2c1
inhibition (Tubulin (Homo sapiens)): 0%
IC50 (Tubulin): > 40 µM
GI50 [1]: 6.6 µM

COc1ccc(-c2cc(=O)c3c(OC)c(OC)c(OC)cc3o2)cc1
GI50 [1]: 28 µM

COc1cc(O)c2c(=O)c(O)c(-c3ccc(OC)c(O)c3)oc2c1 [OMBUINE]
GI50 [1]: 37 µM

O=c1c(O)c(-c2cc(O)c(O)c(O)c2)oc2cc(O)cc(O)c12 [MYRICETIN]
GI50 [1]: 36 µM

COc1cc(OC)c2c(=O)cc(-c3ccc(OC)c(OC)c3OC)oc2c1
GI50 [1]: 79 µM

COc1ccc2oc(-c3ccc(OC)c(OC)c3OC)cc(=O)c2c1
GI50 [1]: 42 µM

COc1ccc(-c2cc(=O)c3c(O)cccc3o2)c(OC)c1OC
GI50 [1]: 45 µM

COc1cc(O)c2c(=O)c(O)c(-c3ccc(O)c(O)c3)oc2c1 [RHAMNETIN]
GI50 [1]: 8.9 µM

COc1cc(-c2oc3c(OC)c(OC)cc(O)c3c(=O)c2OC)ccc1O [TERNATIN]
inhibition (Tubulin (Homo sapiens)): 0%
IC50 (Tubulin): > 40 µM
GI50 [1]: 9.5 µM

COc1cc2oc(-c3ccccc3)cc(=O)c2c(O)c1C
GI50 [1]: > 100 µM
